The term Kd denotes the constant that tells how readily two partners part at equilibrium.

Consider 1 molecule from PMC9763329, “Targeting the transcription factor HES1 by L-menthol restores protein phosphatase 6 in keratinocytes in models of psoriasis” (Nature Communications, 2022).

One assay deals with T1, Hes1 (Mus musculus, UniProt P35428).
T1 construct: endogenous Hes1 in primary mouse keratinocyte lysate, detected by anti-HES1 immunoblot
T1 sequence (P35428 1-282): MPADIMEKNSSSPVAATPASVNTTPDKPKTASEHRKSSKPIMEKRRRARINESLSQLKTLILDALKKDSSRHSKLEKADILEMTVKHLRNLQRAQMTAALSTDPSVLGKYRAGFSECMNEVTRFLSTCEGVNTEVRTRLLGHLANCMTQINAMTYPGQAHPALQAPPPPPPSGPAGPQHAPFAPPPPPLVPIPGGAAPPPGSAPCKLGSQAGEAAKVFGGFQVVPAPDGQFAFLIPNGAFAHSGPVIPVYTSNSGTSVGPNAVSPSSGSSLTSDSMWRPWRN
Nature of the assay: DARTS (pronase protection, anti-HES1 immunoblot). In kind it is biochemical. The settings on record: primary mouse keratinocyte lysate; 30 min L-menthol then 20 min pronase, room temperature. On the technique in general: In western blotting, separated proteins are transferred to a membrane and probed.

In assay [1] the target is T2, HES1 (transcription factor hairy and enhancer of split 1) (Homo sapiens, UniProt Q14469).
T2 construct: Human HES1 in pET-28a(+), C-terminal 6xHis tag kept, E. coli BL21(DE3), nickel and size-exclusion purified
T2 sequence (Q14469 1-280): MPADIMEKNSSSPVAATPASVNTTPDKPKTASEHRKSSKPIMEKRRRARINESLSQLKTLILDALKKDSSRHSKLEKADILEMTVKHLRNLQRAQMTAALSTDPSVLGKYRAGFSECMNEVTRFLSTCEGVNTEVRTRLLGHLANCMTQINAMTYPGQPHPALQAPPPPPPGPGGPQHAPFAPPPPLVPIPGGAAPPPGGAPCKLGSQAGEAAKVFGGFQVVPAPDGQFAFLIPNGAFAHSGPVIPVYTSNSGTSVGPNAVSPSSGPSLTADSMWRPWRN
Nature of the assay: microscale thermophoresis (Monolith NT.[…]). In kind it is binding.

On to `CC(C)[C@@H]1CC[C@@H](C)C[C@H]1O` [L-menthol], for which the “DARTS (pronase protection, anti-HES1 immunoblot)” value on Hes1 is “interaction between HES1 and L-menthol was verified in HaCaT cells”. The Kd in assay [1] stood at 0.0168 µM.
